Data from patent publication US20090131304A1, “Semi-Synthetic Desmethyl-Vancomycin-Based Glycopeptides With Antibiotic Activity” (Novartis Vaccines and Diagnostics, Inc., priority 2005, published 2009).
≈ marks a conversion by molar mass, not a printed value. Where two headings read alike, the source gives them in different places.

Tests used:
Assay type in all cases: cell-based
[1] = tested on: methicillin-susceptible Staphylococus aureus (MSSA); experiment: MIC, NCCLS microdilution broth procedure, MSSA; conditions: for MIC: Staphylococcus aureus, read-out: minimum inhibitory concentration (MIC)
Protocol: (§1) The following table identifies specific species of compounds according to the present invention and information concerning their associated antibacterial activity. The antibacterial activity of three compounds in accordance with the present invention (N-biphenyl-methyl-norvacomycin (A); N-chloro-biphenyl-methyl-norvacomycin (B) and desmethyl-vancomycin-gly-p-n-octyloxybenzyl (C)) were tested and compared to unmodified vancomycin (Van) and norvancoycin (Nor). MIC (minimum inhibitory concentration) was measured according to NCCLS standards using the microdilution broth procedure. Serial dilutions of the compounds were placed in a 96-well microplate containing Mueller-Hinton medium. Based on absorbance of 600 nm, diluted overnight cultures were placed in the wells at a final concentration of 5×10^5 cfu/mL. The plate was then placed in a culture box at 35° C. The next day, MIC was determined by visual observation of the plates.
(§2) The glycopeptides were tested against a variety of strains well known in the art for such testing, including methicillin-susceptible Staphylococus aureus (MSSA), methicillin-susceptible Staphylococus epidermidis (MSSE), methicillin-resistant Staphylococus aureus (MRSA), methicillin-resistant Staphylococus epidermidis (MRSE), and glycopeptide-intermediate Staphylococus aureus (GISA). Results are shown in the Table 1 as minimum inhibitory concentration (MIC) in units of μg/ml: […]

[2] = tested on: methicillin-resistant Staphylococus aureus (MRSA); experiment: MIC, NCCLS microdilution broth procedure, MRSA; conditions: for MIC: Staphylococcus aureus, MRSA
Protocol: as §1, §2

[3] = tested on: methicillin-susceptible Staphylococus epidermidis (MSSE); experiment: MIC, NCCLS microdilution broth procedure, MSSE; conditions: for MIC: read-out: minimum inhibitory concentration (MIC)
Protocol: as §1, §2

[4] = tested on: methicillin-resistant Staphylococus epidermidis (MRSE); experiment: MIC, NCCLS microdilution broth procedure, MRSE; conditions: for MIC: Staphylococcus epidermidis, read-out: minimum inhibitory concentration (MIC)
Protocol: as §1, §2

[5] = tested on: glycopeptide-intermediate Staphylococus aureus (GISA) (V); experiment: MIC, NCCLS microdilution broth procedure, GISA (V)
Protocol: as §1, §2

[6] = tested on: glycopeptide-intermediate Staphylococus aureus (GISA) (D); experiment: MIC, NCCLS microdilution broth procedure, GISA (D)
Protocol: as §1, §2

[7] = read-out: minimum inhibitory concentration (MIC)
[8] = MRSA strain # 134, read-out: minimum inhibitory concentration (MIC)
[9] = MRSA strain # 143, read-out: minimum inhibitory concentration (MIC)
[10] = GISA (V) strain # 68, read-out: minimum inhibitory concentration (MIC)
[11] = GISA (V) strain # 143, read-out: minimum inhibitory concentration (MIC)
[12] = GISA (D) strain # 68, read-out: minimum inhibitory concentration (MIC)

SMILES | minimum inhibitory concentration (MIC) ([1]; MSSA strain # 83) | MIC ([1]; MSSA) | minimum inhibitory concentration (MIC) ([3]; MSSE strain # 10) | MIC [3] | minimum inhibitory concentration (MIC) ([4]; MRSE strain # 25) | minimum inhibitory concentration (MIC) ([4]; MRSE strain # 26) | MIC ([4]; MRSE) | minimum inhibitory concentration (MIC) ([6]; GISA (D) strain # 143) | MIC ([1]; MSSA strain # 68) | MIC [2, 8] | MIC [2, 9] | MIC ([3]; MSSE strain # 3) | MIC ([4]; MRSE strain # 24) | MIC [5, 10] | MIC [5, 11] | MIC [6, 12] | minimum inhibitory concentration (MIC) ([2]; MRSA strain # 143) | minimum inhibitory concentration (MIC) ([5]; GISA (V) strain # 143) | also measured
CCCCCCCCOc1ccc(CNCC(=O)N[C@@]2(C)C[C@H](OC3C(Oc4c5cc6cc4Oc4ccc(cc4Cl)[C@@H](O)[C@@H](NC(=O)[C@@H](N)CC(C)C)C(=O)N[C@@H](CC(N)=O)C(=O)N[C@H]6C(=O)N[C@H]4C(=O)NC(C(=O)N[C@H](C(=O)O)c6cc(O)cc(O)c6-c6cc4ccc6O)[C@H](O)c4ccc(c(Cl)c4)O5)O[C@H](CO)[C@@H](O)[C@@H]3O)O[C@@H](C)[C@H]2O)cc1 (some centres unmarked) [Compound C, Desmethyl-vancomycin-Gly-p-n-Octyloxybenzyl] | 2 µg/mL (≈ 1.17 µM) | 2 µg/mL (≈ 1.17 µM) | 1 µg/mL (≈ 0.585 µM) | 1 µg/mL (≈ 0.585 µM) | 2 µg/mL (≈ 1.17 µM) | 2 µg/mL (≈ 1.17 µM) | 2 µg/mL (≈ 1.17 µM) | 4 µg/mL (≈ 2.34 µM) | – | – | – | – | – | – | – | – | – | – | MIC ([2]; read-out: minimum inhibitory concentration (MIC), MRSA strain # 134): 2 µg/mL (≈ 1.17 µM); MIC ([2]; read-out: minimum inhibitory concentration (MIC), MRSA strain # 143): 1 µg/mL (≈ 0.585 µM); MIC ([5]; read-out: minimum inhibitory concentration (MIC), GISA (V) strain # 68): 4 µg/mL (≈ 2.34 µM); MIC ([5]; read-out: minimum inhibitory concentration (MIC), GISA (V) strain # 143): 2 µg/mL (≈ 1.17 µM); MIC [6, 7]: 4 µg/mL (≈ 2.34 µM)
CC(C)C[C@H](N)C(=O)N[C@H]1C(=O)N[C@@H](CC(N)=O)C(=O)N[C@H]2C(=O)N[C@H]3C(=O)NC(C(=O)N[C@H](C(=O)O)c4cc(O)cc(O)c4-c4cc3ccc4O)[C@H](O)c3ccc(c(Cl)c3)Oc3cc2cc(c3OC2O[C@H](CO)[C@@H](O)[C@H](O)C2O[C@H]2C[C@](C)(NCc3ccc(-c4ccc(Cl)cc4)cc3)[C@H](O)[C@H](C)O2)Oc2ccc(cc2Cl)[C@H]1O (some centres unmarked) [Compound B, N-Chloro-Biphenyl-Methyl-Desmethyl-vancomycin] | 0.5 µg/mL (≈ 0.306 µM) | – | 0.5 µg/mL (≈ 0.306 µM) | – | 0.5 µg/mL (≈ 0.306 µM) | 0.5 µg/mL (≈ 0.306 µM) | – | 1 µg/mL (≈ 0.611 µM) | 0.5 µg/mL (≈ 0.306 µM) | 0.5 µg/mL (≈ 0.306 µM) | 0.5 µg/mL (≈ 0.306 µM) | 0.5 µg/mL (≈ 0.306 µM) | 0.5 µg/mL (≈ 0.306 µM) | 1 µg/mL (≈ 0.611 µM) | 1 µg/mL (≈ 0.611 µM) | 1 µg/mL (≈ 0.611 µM) | – | – | –
CN[C@H](CC(C)C)C(=O)N[C@H]1C(=O)N[C@@H](CC(N)=O)C(=O)N[C@H]2C(=O)N[C@H]3C(=O)N[C@H](C(=O)N[C@H](C(=O)O)c4cc(O)cc(O)c4-c4cc3ccc4O)[C@H](O)c3ccc(c(Cl)c3)Oc3cc2cc(c3O[C@@H]2O[C@H](CO)[C@@H](O)[C@H](O)[C@H]2O[C@H]2C[C@](C)(N)[C@H](O)[C@H](C)O2)Oc2ccc(cc2Cl)[C@H]1O [Van, vancomycin] | 2 µg/mL (≈ 1.38 µM) | 2 µg/mL (≈ 1.38 µM) | 2 µg/mL (≈ 1.38 µM) | 2 µg/mL (≈ 1.38 µM) | 2 µg/mL (≈ 1.38 µM) | 2 µg/mL (≈ 1.38 µM) | 2 µg/mL (≈ 1.38 µM) | – | – | – | – | – | – | – | – | – | 2 µg/mL (≈ 1.38 µM) | 8 µg/mL (≈ 5.52 µM) | MIC [2, 7]: 2 µg/mL (≈ 1.38 µM); MIC [5, 7]: 8 µg/mL (≈ 5.52 µM); MIC ([6]; read-out: minimum inhibitory concentration (MIC), GISA (D) strain # 68): 8 µg/mL (≈ 5.52 µM); MIC ([6]; read-out: minimum inhibitory concentration (MIC), GISA (D) strain # 143): 4 µg/mL (≈ 2.76 µM)
CC(C)C[C@H](N)C(=O)N[C@H]1C(=O)N[C@@H](CC(N)=O)C(=O)N[C@H]2C(=O)N[C@H]3C(=O)NC(C(=O)N[C@H](C(=O)O)c4cc(O)cc(O)c4-c4cc3ccc4O)[C@H](O)c3ccc(c(Cl)c3)Oc3cc2cc(c3OC2O[C@H](CO)[C@@H](O)[C@H](O)C2O[C@H]2C[C@](C)(NCc3ccc(-c4ccccc4)cc3)[C@H](O)[C@H](C)O2)Oc2ccc(cc2Cl)[C@H]1O (some centres unmarked) [Compound A, N-Biphenyl-Methyl-Desmethyl-vancomycin] | 2 µg/mL (≈ 1.25 µM) | – | 4 µg/mL (≈ 2.5 µM) | – | 4 µg/mL (≈ 2.5 µM) | 4 µg/mL (≈ 2.5 µM) | – | 8 µg/mL (≈ 5 µM) | 2 µg/mL (≈ 1.25 µM) | 2 µg/mL (≈ 1.25 µM) | 4 µg/mL (≈ 2.5 µM) | 4 µg/mL (≈ 2.5 µM) | 4 µg/mL (≈ 2.5 µM) | 8 µg/mL (≈ 5 µM) | 4 µg/mL (≈ 2.5 µM) | 8 µg/mL (≈ 5 µM) | – | – | –
CC(C)C[C@@H](N)C(=O)N[C@H]1C(=O)N[C@@H](CC(N)=O)C(=O)N[C@H]2C(=O)N[C@H]3C(=O)N[C@H](C(=O)N[C@H](C(=O)O)c4cc(O)cc(O)c4-c4cc3ccc4O)[C@H](O)c3ccc(c(Cl)c3)Oc3cc2cc(c3O[C@@H]2O[C@H](CO)[C@@H](O)[C@H](O)[C@H]2O[C@H]2C[C@](C)(N)[C@H](O)[C@H](C)O2)Oc2ccc(cc2Cl)[C@H]1O [Nor, norvancoycin, reference compound] | 2 µg/mL (≈ 1.39 µM) | – | 2 µg/mL (≈ 1.39 µM) | – | 2 µg/mL (≈ 1.39 µM) | 2 µg/mL (≈ 1.39 µM) | – | 4 µg/mL (≈ 2.79 µM) | – | – | – | – | – | – | – | – | 2 µg/mL (≈ 1.39 µM) | 8 µg/mL (≈ 5.57 µM) | minimum inhibitory concentration (MIC) ([1]; MSSA strain # 68): 2 µg/mL (≈ 1.39 µM); minimum inhibitory concentration (MIC) ([2]; MRSA strain # 134): 2 µg/mL (≈ 1.39 µM); minimum inhibitory concentration (MIC) ([3]; MSSE strain # 3): 2 µg/mL (≈ 1.39 µM); minimum inhibitory concentration (MIC) ([4]; MRSE strain # 24): 2 µg/mL (≈ 1.39 µM); minimum inhibitory concentration (MIC) ([5]; GISA (V) strain # 68): 4 µg/mL (≈ 2.79 µM); minimum inhibitory concentration (MIC) ([6]; GISA (D) strain # 68): 4 µg/mL (≈ 2.79 µM)
